In patent US20160101054A1, “SUSTAINED DELIVERY OF DRUGS FROM BIODEGRADABLE POLYMERIC MICROPARTICLES” (Yale University, priority 2008, published 2016):

Assays:
EGFR [1] = biological target: T1, EGFR (Rattus norvegicus, UniProt G3V6K6); assay: Bioactivity of AG1478: western blot of phosphorylated EGFR in FR3T3 cells after EGF; type: cell-based; conditions: for bioactivity by western blot of activated EGFR: FR3T3 cells expressing EGFR at normal levels, concentration equal to IC50, EGF 100 ng/mL
T1 construct: cells expressing EGFR at normal levels; endogenous in cells; host or cells: FR3T3 (Fisher rat 3T3 fibroblasts)
Method: Microsphere size was ascertained using a Multisizer™ 3 Coulter Counter® and confirmed visually via SEM. […] Relative bioactivity was determined using the gray mean value for each phospho-EGFR band.

EGFR [2] = conditions: in vivo; cited from earlier work

Q: What does the source list for COc1cc2ncnc(Nc3cccc(Cl)c3)c2cc1OC [AG1478]?
A: bioactivity by western blot of activated EGFR (EGFR [1]; listed as non-encapsulated AG1478): 89±4.5%; bioactivity by western blot of activated EGFR (EGFR [1]; listed as non-encapsulated inhibitor): 89±2.7%; inhibition in FR3T3 cells (EGFR [1]; at 3 mM (~[…] polymer)): greater than 95%; EGFR upregulation and activation of astrocytes, survival of RGCs (EGFR [2]): reverses this upregulation and activation of astrocytes and increases the survival of RGCs
